# Patent US20250281464A1, “TREATMENT OF PATHOGENIC NEISSERIA SP. INFECTION WITH TRIAZOLE ANTIFUNGAL AGENTS” (Virginia Tech Intellectual Properties, Inc., priority 2022, published 2025)
# Like-named read-outs stand apart in the source and are kept apart here.
# Experiments:
# N. gonorrhoeae isolates = assay: MIC against panel of N. gonorrhoeae clinical isolates; assay type: cell-based, Neisseria gonorrhoeae; conditions: for MIC50 / MIC90: Neisseria gonorrhoeae; for MIC50: read-out: MIC50; for MIC90: read-out: MIC90
# L. crispatus = assay: MIC against commensal vaginal Lactobacillus strains; assay type: cell-based, Lactobacillus crispatus; conditions: for MIC Range: Table 6, L. crispatus (3 strains); for MIC: Lactobacillus crispatus
# From the text: (§1) N. gonorrhoeae pathogenesis greatly depends on colonization of the reproductive tract. One of the natural barriers of such colonization is an intact healthy microbiome. Species of lactobacilli present in the genitourinary tract play a significant role in hindering colonization by Neisseria(1).
# (§2) A healthy vaginal microbiome that is dominated by Lactobacillus spp. is less susceptible to N. gonorrhoeae infection and other sexually transmitted diseases (STDs). […] We tested the activity of azoles against important members of healthy vaginal microbiota that inhibit N. gonorrhoeae colonization.
# L. gasseri = assay: as above; assay type: cell-based, Lactobacillus gasseri; conditions: for MIC Range: Table 6, L. gasseri (4 strains); for MIC: Lactobacillus gasseri
# From the text: as §1, §2
# L. jensenii = assay: as above; assay type: cell-based, Lactobacillus jensenii; conditions: for MIC Range: Table 6, L. jensenii (7 strains); for MIC: Lactobacillus jensenii
# From the text: as §1, §2
# L. johnsonii = assay: as above; assay type: cell-based, Lactobacillus johnsonii; conditions: for MIC Range: Table 6, L. johsonii (2 strains)
# From the text: as §1, §2
# [1] = tested on: commensal vaginal lactobacilli strains; assay: MIC against all commensal vaginal Lactobacillus strains tested; assay type: cell-based, Lactobacillus spp.; conditions: all species/strains of Lactobacillus tested (Example 2); read-out: MIC
# From the text: as §1, §2
# [2] = MIC against normal gut microbiota; assay type: cell-based
# From the text: (§3) Disrupting the intestinal microbiota using broad-spectrum antimicrobial therapy increases the susceptibility of hosts to C. difficile colonization.
# Bacteroides dorei = assay: MIC against normal gut microbiota; assay type: cell-based; conditions: Bacteroides dorei (2 strains)
# From the text: as §3
# Bacteroides fragilis = assay: MIC against normal gut microbiota; assay type: cell-based; conditions: Bacteroides fragilis (4 strains)
# From the text: as §3
# [3] = tested on: Bifidobacterium angulatum; assay: MIC against normal gut microbiota; assay type: cell-based; conditions: Bifidobacterium angulatum (1 strain)
# From the text: as §3
# Enterococcus faecalis = assay: MIC against normal gut microbiota; assay type: cell-based; conditions: Enterococcus faecalis (1 strain)
# From the text: as §3
# Enterococcus faecium = assay: MIC against normal gut microbiota; assay type: cell-based; conditions: Enterococcus faecium (1 strain)
# From the text: as §3
# Escherichia coli = assay: MIC against normal gut microbiota; assay type: cell-based; conditions: Escherichia coli (1 strain)
# From the text: as §3
# Lactobacillus brevis = assay: MIC against normal gut microbiota; assay type: cell-based; conditions: Lactobacillus brevis (1 strain)
# From the text: as §3
# Lactobacillus casei = assay: MIC against normal gut microbiota; assay type: cell-based; conditions: Lactobacillus casei (1 strain)
# From the text: as §3
# Lactobacillus rhamnosus = assay: MIC against normal gut microbiota; assay type: cell-based; conditions: Lactobacillus rhamnosus (1 strain)
# From the text: as §3
# Staphylococcus aureus = assay: MIC against normal gut microbiota; assay type: cell-based; conditions: Staphylococcus aureus (1 strain)
# From the text: as §3
# [4] = tested on: resistant N. gonorrhoeae isolates; assay: MIC against resistant N. gonorrhoeae isolates by agar dilution; assay type: cell-based, Neisseria gonorrhoeae
# N. gonorrhoeae = assay: Post-antibiotic effect (PAE) against N. gonorrhoeae; assay type: cell-based, Neisseria gonorrhoeae; conditions: 1 h exposure at 10×MIC
# From the text: Determining the PAE of a new antimicrobial is an important step for dosing and has clinical importance.
# N. flavescens = assay: MIC against Neisseria spp.; assay type: cell-based; conditions: N. flavescens (1 strain)
# From the text: (§4) Intrigued by the specificity and potent activity of azoles against N. gonorrhoeae, we evaluated the extent of the azoles' antibacterial activity against other Neisseria species (Table 8).
# N. lactamica = assay: MIC against Neisseria spp.; assay type: cell-based; conditions: N. lactamica (1 strain)
# From the text: as §4
# N. mucosa = assay: MIC against Neisseria spp.; assay type: cell-based; conditions: N. mucosa (1 strain)
# From the text: as §4
# [5] = Table 1, 104 N. gonorrhoeae isolates
# [6] = Table 3, 103 N. gonorrhoeae isolates with different resistance profiles
# [7] = Bacteroides adolescentis (2 strains)
structure (smiles),measurement,setting,value
O=c1ccc2ncc(=O)n3c2n1C[C@H]3CN1CCC(NCc2cc3c(cn2)OCCC3)CC1 [Gepotidacin],MIC50,N. gonorrhoeae isolates; [5],0.25 µg/mL
same,MIC90,N. gonorrhoeae isolates; [5],0.5 µg/mL
same,MIC50,N. gonorrhoeae isolates; [6],0.5 µg/mL
same,MIC90,N. gonorrhoeae isolates; [6],1 µg/mL
same,MIC Range,N. gonorrhoeae isolates; [5],0.03 to 8 µg/mL
same,MIC Range,N. gonorrhoeae isolates; [6],0.03 to 8 µg/mL
same,MIC Range,L. crispatus,≤1 µg/mL
same,MIC Range,L. gasseri,≤1 µg/mL
same,MIC Range,L. jensenii,≤1 µg/mL
same,MIC Range,L. johnsonii,≤1 µg/mL
same,MIC,[1],< 1 µg/mL
same,MIC Range,[2]; [7],<0.125 µg/mL
same,MIC Range,[2]; Bacteroides breve (2 strains),<0.125 µg/mL
same,MIC Range,[2]; Bacteroides longum (2 strains),0.5 µg/mL
same,MIC Range,Bacteroides dorei,0.125 µg/mL
same,MIC Range,Bacteroides fragilis,0.25 to 2 µg/mL
same,MIC Range,[3],0.125 µg/mL
same,MIC Range,Enterococcus faecalis,1 µg/mL
same,MIC Range,Enterococcus faecium,2 µg/mL
same,MIC Range,Escherichia coli,0.125 µg/mL
same,MIC Range,Lactobacillus brevis,0.5 µg/mL
same,MIC Range,Lactobacillus casei,0.25 µg/mL
same,MIC Range,Lactobacillus rhamnosus,0.5 µg/mL
same,MIC Range,Staphylococcus aureus,0.25 µg/mL
CC[C@H]1OC(=O)[C@H](C)[C@@H](O[C@H]2C[C@@](C)(OC)[C@@H](O)[C@H](C)O2)[C@H](C)[C@@H](O[C@@H]2O[C@H](C)C[C@H](N(C)C)[C@H]2O)[C@](C)(O)C[C@@H](C)CN(C)[C@H](C)[C@@H](O)[C@]1(C)O [Azithromycin],MIC50,N. gonorrhoeae isolates; [5],1 µg/mL
same,MIC90,N. gonorrhoeae isolates; [5],4 µg/mL
same,MIC50,N. gonorrhoeae isolates; [6],1 µg/mL
same,MIC90,N. gonorrhoeae isolates; [6],4 µg/mL
same,MIC Range,N. gonorrhoeae isolates; [5],0.03 to 512 µg/mL
same,MIC Range,N. gonorrhoeae isolates; [6],0.03 to 512 µg/mL
same,MIC,"[4]; strain CDC-174, agar dilution",1 µg/mL
same,MIC,"[4]; strain CDC-179, agar dilution",8 µg/mL
same,MIC,"[4]; strain CDC-181, agar dilution",256 µg/mL
same,MIC,"[4]; strain WHO-L, agar dilution",0.5 µg/mL
same,MIC,"[4]; strain WHO-X, agar dilution",0.5 µg/mL
same,MIC,"[4]; strain WHO-Y, agar dilution",1 µg/mL
same,MIC,"[4]; strain WHO-Z, agar dilution",1 µg/mL
same,MIC,L. crispatus; L. crispatus HM-103,1 µg/mL
same,MIC,L. crispatus; L. crispatus HM-371,2 µg/mL
same,MIC,L. crispatus; L. crispatus HM-638,1 µg/mL
same,MIC Range,L. crispatus,≤1 µg/mL
same,MIC,L. gasseri; L. gasseri HM-407,≤ 0.5 µg/mL
same,MIC,L. gasseri; L. gasseri HM-642,2 µg/mL
same,MIC,L. gasseri; L. gasseri HM-644,2 µg/mL
same,MIC,L. gasseri; L. gasseri HM-647,1 µg/mL
same,MIC Range,L. gasseri,≤1 µg/mL
same,MIC,L. jensenii; L. jensenii HM-105,≤ 0.5 µg/mL
same,MIC,L. jensenii; L. jensenii HM-372,1 µg/mL
same,MIC,L. jensenii; L. jensenii HM-374,1 µg/mL
same,MIC,L. jensenii; L. jensenii HM-639,1 µg/mL
same,MIC,L. jensenii; L. jensenii HM-640,≤ 0.5 µg/mL
same,MIC,L. jensenii; L. jensenii HM-645,1 µg/mL
same,MIC,L. jensenii; L. jensenii HM-646,2 µg/mL
same,MIC Range,L. jensenii,≤1 µg/mL
same,MIC,"L. johnsonii; Lactobacillus johnsonii, L. johnsonii HM-643",2 µg/mL
same,MIC Range,L. johnsonii,≤1 µg/mL
same,MIC,[1],< 1 µg/mL
same,PAE,N. gonorrhoeae; strain FA 1090,6 h
same,PAE,N. gonorrhoeae; strain WHO P,8 h
same,PAE,N. gonorrhoeae; strain WHO Y,4 h
same,MIC Range,[2]; [7],0.015 µg/mL
same,MIC Range,[2]; Bacteroides breve (2 strains),0.03 to 0.06 µg/mL
same,MIC Range,[2]; Bacteroides longum (2 strains),0.25 µg/mL
same,MIC Range,Bacteroides dorei,4 to 16 µg/mL
same,MIC Range,[3],0.03 µg/mL
same,MIC Range,Enterococcus faecalis,2 µg/mL
same,MIC Range,Enterococcus faecium,0.25 µg/mL
same,MIC Range,Escherichia coli,2 µg/mL
same,MIC Range,Lactobacillus brevis,1 µg/mL
same,MIC Range,Lactobacillus casei,0.5 µg/mL
same,MIC Range,Lactobacillus rhamnosus,1 µg/mL
same,MIC Range,Staphylococcus aureus,0.25 µg/mL
same,MIC Range,N. flavescens,2 µg/mL
same,MIC Range,N. lactamica,2 µg/mL
same,MIC Range,N. mucosa,2 µg/mL
